Results reported in patent US11160871B2, “SSTR-targeted conjugates and particles and formulations thereof” (TARVEDA THERAPEUTICS, INC., priority 2015, dated 2021).

Tested on: H69 tumor
Assay: Histological staining of PH3 and CC3 in periphery, middle and core of H69 tumor
Type: in vivo
Source text: Histological staining of PH3 and CC3 in periphery, middle and core of H69 tumor after Conjugate 57 treatment was shown in FIG. 22A and FIG. 22B. The periphery sample was taken from roughly the outside ⅓ of the tumor. The core sample was taken from roughly the center ⅓ of the tumor. The middle sample was taken from roughly ⅓ in between these locations. Using a 40× high-powered objective, positively stained cells were counted, one field per animal, 3 animals per treatment group. Each field was roughly 500 μm in size. In general, the PH3 staining was strongest on the periphery and decreased as you moved towards the center of the tumor.

SMILES: COc1cc2cc(c1Cl)N(C)C(=O)C[C@H](OC(=O)[C@H](C)N(C)C(=O)CCSSC[C@H](NC(=O)[C@@H]1CSSC[C@H](NC(=O)[C@H](N)Cc3ccccc3)C(=O)N[C@@H](Cc3ccc(O)cc3)C(=O)N[C@H](Cc3c[nH]c4ccccc34)C(=O)N[C@@H](CCCCN)C(=O)N[C@@H]([C@@H](C)O)C(=O)N1)C(N)=O)[C@]1(C)O[C@H]1[C@H](C)[C@@H]1C[C@@](O)(NC(=O)O1)[C@H](OC)/C=C/C=C(\C)C2 [Conjugate 57]
- Number of cells with positive CC3 stain, Core (24 h): 50.3
- Number of cells with positive CC3 stain, Middle (24 h): 27.0
- Number of cells with positive CC3 stain, Periphery (24 h): 9.7
- Number of cells with positive PH3 stain, Core (24 h): 74.7
- Number of cells with positive PH3 stain, Middle (24 h): 122.3
- Number of cells with positive PH3 stain, Periphery (24 h): 158.3
- Number of cells with positive CC3 stain, Core (72 h): 106.7
- Number of cells with positive CC3 stain, Middle (72 h): 72.0
- Number of cells with positive CC3 stain, Periphery (72 h): 41.0
- Number of cells with positive PH3 stain, Core (72 h): 113.0
- Number of cells with positive PH3 stain, Middle (72 h): 144.3
- Number of cells with positive PH3 stain, Periphery (72 h): 215.7
